Experimental data as given in patent US12533362B2, “Methods for treating diseases associated with ciliopathies” (ALEXION PHARMACEUTICALS, INC., priority 2017, dated 2026).
pIC50: −log10 of the molar value.

Key:
[1] = tested on: NPHP patient-derived cells; assay: automated cilia-based ciliogenesis assay in NPHP patient-derived cells; assay type: cell-based, human
Excerpt: (§1) To identify compounds for treating diseases associated with ciliopathies such as, for example, NPHP, NPHP patient-derived cells were obtained and cell lines were established. Briefly, peeled renal epithelial cells, which are mostly proximal tubule cells (tbc) recovered from urine of NPHP1-deficient patients, were immortalized by retroviral gene transfer of SV40 T antigen. Cells were fixed and fluorescence-labeled with Hoechst (for nuclei staining), anti-γ-tubulin antibody (for basal bodies staining), and anti-ARL13B antibody (for cilia staining) for detection using immunofluorescence microscopy.
(§2) Briefly, NPHP patient-derived cells and control cells were cultured in complete media, at 39C (non-permissive temperature for SV40 expression), followed by automatic cilia analysis using immunofluorescence microscopy to measure ciliogenesis, e.g., in terms of % cilia. A spinning disk platform may be used for drug screening (FIG. 5, A-J) and ciliogenesis analysis of G3 multi-OMICs dataset (FIG. 29, A-E).
(§3) The cilia-based assay described above may be used to identify compounds that restore ciliogenesis. […] Automated random acquisition of 35 images per well may be performed, for example. Each image may have z-stack of 10 images taken at <1 μm intervals.

[2] = tested on: control normal epithelial cells; assay: automated cilia-based ciliogenesis assay in control normal epithelial cells; assay type: cell-based, human
Excerpt: as §1, §2
as §3, with “intervals. Consecutive imaging of nucleus (Hoechst at 461 nm), basal body (γ-tubulin at 555 nm) and cilia (ARL13b at 647 nm) may be obtained.” for “intervals.”

URECs = assay: microarray differential expression analysis of URECs; assay type: cell-based, human; conditions: for top regulated genes signaling pathway, microarray: DMSO vs 0.2 μM, 2 μM and 10 μM
Method: Microarray analysis was performed to identify expressed genes responsible for the alprostadil-mediated restoration of ciliogenesis.

zebrafish NPHP4 MO = assay: zebrafish NPHP4 morpholino (MO) model; assay type: in vivo
Method: Briefly, wild-type Tg(wt1b:GFP) transgenic zebrafish embryos were injected with morpholino (e.g., nphp4 ATG MO) at one-cell stage. At 8 hours post-fertilization (hpf), injected embryos were treated with drug or vehicle in PTU-egg water (1 mL in 12-well plates). At 24 hpf, drug treatment was renewed, and pronase was added at 36 hpf for chorion removal.

EP1 = target: T1, EP1 (Mus musculus, UniProt P35375); conditions: cited from earlier work
T1 sequence (P35375 1-405): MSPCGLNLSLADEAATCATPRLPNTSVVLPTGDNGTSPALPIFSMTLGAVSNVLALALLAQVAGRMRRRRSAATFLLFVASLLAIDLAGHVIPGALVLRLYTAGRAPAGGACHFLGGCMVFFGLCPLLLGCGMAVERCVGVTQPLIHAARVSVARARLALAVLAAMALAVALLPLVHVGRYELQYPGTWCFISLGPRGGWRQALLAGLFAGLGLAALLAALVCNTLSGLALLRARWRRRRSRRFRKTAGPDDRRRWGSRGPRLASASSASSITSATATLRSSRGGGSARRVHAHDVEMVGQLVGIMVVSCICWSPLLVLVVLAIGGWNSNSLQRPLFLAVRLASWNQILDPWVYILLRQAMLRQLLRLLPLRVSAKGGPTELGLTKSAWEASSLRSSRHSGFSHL

EP2 = EP2 (Mus musculus, UniProt Q62053); conditions: cited from earlier work
EP3 = target: T2, EP3 (Mus musculus, UniProt P30557); conditions: cited from earlier work
T2 sequence (P30557 1-365): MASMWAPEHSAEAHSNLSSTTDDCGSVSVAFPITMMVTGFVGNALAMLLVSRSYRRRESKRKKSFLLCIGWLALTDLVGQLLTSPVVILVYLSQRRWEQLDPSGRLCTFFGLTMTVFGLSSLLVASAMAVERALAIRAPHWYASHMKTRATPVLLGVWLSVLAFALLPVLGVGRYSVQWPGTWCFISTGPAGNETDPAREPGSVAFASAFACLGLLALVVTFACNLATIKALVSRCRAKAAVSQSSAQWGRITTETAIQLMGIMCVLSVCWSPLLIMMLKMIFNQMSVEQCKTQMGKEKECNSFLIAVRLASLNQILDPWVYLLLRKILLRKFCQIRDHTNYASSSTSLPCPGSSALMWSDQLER

EP4 = EP4 (Mus musculus, UniProt P32240); conditions: cited from earlier work
[3] = meta-analysis, multiple NPHP patient-derived cell lines

EP4, sequence (P32240 whole entry): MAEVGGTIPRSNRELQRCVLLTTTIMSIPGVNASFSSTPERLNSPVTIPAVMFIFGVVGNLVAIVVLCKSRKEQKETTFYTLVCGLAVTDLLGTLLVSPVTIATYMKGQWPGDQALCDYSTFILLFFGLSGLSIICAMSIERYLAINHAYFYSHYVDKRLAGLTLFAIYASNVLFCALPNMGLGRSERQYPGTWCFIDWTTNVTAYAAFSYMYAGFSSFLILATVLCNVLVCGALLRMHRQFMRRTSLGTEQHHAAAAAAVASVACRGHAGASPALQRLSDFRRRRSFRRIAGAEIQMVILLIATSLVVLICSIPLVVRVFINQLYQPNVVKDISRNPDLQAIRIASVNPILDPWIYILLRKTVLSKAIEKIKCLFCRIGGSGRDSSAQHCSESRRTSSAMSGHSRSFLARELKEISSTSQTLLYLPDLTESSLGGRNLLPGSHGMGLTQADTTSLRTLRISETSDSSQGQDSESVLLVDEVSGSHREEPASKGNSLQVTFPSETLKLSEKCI
EP2, sequence (Q62053 whole entry): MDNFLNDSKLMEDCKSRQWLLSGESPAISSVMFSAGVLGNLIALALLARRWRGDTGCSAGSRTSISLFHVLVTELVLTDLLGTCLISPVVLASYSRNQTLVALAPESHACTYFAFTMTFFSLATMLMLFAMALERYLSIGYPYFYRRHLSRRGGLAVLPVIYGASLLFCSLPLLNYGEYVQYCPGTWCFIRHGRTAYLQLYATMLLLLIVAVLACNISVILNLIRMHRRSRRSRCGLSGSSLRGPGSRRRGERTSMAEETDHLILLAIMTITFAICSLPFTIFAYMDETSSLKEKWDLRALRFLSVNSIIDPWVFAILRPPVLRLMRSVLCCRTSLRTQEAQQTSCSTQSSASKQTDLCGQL

SMILES: CCCCC[C@H](O)/C=C/[C@H]1[C@H](O)CC(=O)[C@@H]1CCCCCCC(=O)O [alprostadil, prostaglandin E1]
- ciliogenesis rate ([1]; 2 μM vs DMSO, NPHP1(del) cell lines PT1, 1-03-P, 1-06-P1, 1-06-P2, 1-09-P, 1-10-P, 1-12-P, FIG. 11B): significantly increases ciliogenesis rate
- % ciliated cells, dose response ([1]; alprostadil titration from 1 nM to 2 μM and from 100 pM to 2 μM, FIG. 7): significantly increases % ciliated cells in a dose-dependent manner
- effect on ciliogenesis (percentage of ciliated cells) as compared with DMSO ([1]; drug screening, various tested concentrations, FIG. 5 / FIG. 6): significantly restored ciliogenesis
- % ciliated cells, multi-omics phenotypic analysis ([1]; five independent experiments, FIGS. 26A-26E): partially restores ciliogenesis
- increase in the effect on ciliogenesis in NPHP patient-derived cells versus control (DMSO 0.04%) ([1]; meta-analysis, FIG. 8C): about two-fold
- linear regression pooled slope value of effect on ciliogenesis [1, 3]: 1.414
- linear regression range of slope values of effect on ciliogenesis [1, 3]: 1.333 to 1.506
- ciliogenesis, meta-analysis ([1]; vs DMSO 0.04%, PT1 cells, FIG. 8B): significantly increases ciliogenesis
- ciliogenesis, meta-analysis ([2]; 2 μM vs DMSO 0.04%, CTRL cells, FIG. 8A): does not significantly affect ciliogenesis
- ciliogenesis rate ([2]; 2 μM vs DMSO, normal control cells, FIG. 11B): no significant effect on ciliogenesis rate
- top regulated genes signaling pathway, microarray (URECs; Qiazol extraction): down-regulation of cell adhesion and extracellular matrix, and up-regulation of interferon signaling
- top regulated genes signaling pathway, microarray (URECs; RLT extraction): down-regulation of cell adhesion and extracellular matrix
- alteration in gene expression in NPHP patient-derived cells compared to control cells (URECs; pathway analysis crossing microarray data with RNAseq of control vs patient): could reverse alteration in gene expression
- dorsal curvature (automated quantified parameter) (zebrafish NPHP4 MO; 0.5 μM and 5 μM vs DMSO): did not significantly affect dorsal curvature
- body axis curvature (normal, class I, class II, class III) (zebrafish NPHP4 MO; 0.5 μM and 5 μM vs DMSO, p>0.05 Fischer's exact test): did not significantly affect body axis curvature
- percentage of severe pronephric cysts (zebrafish NPHP4 MO; 0.5 μM vs DMSO, p<0.05 Fischer's exact test): significantly reduced the percentage of severe pronephric cysts
- percentage of severe pronephric cysts (zebrafish NPHP4 MO; 5 μM vs DMSO): significantly reduced the percentage of severe pronephric cysts
- pIC50 (EP1): 7.44
- pIC50 (EP2): 8.00
- pIC50 (EP3): 8.96
- pIC50 (EP4): 8.68
